Measurements: ChEMBL document CHEMBL5584201, “Amphiphilic tribasic galactosamines potentiate rifampicin in Gram-negative bacteria at low Mg++/Ca++concentrations” (Bioorg Med Chem Lett, 2024)

Experiments:
Format in all cases: functional
[1] = test system: Acinetobacter baumannii; experiment: Potentiation of rifampicin-induced antibacterial activity against multidrug resistant Acinetobacter baumannii AB027 assessed as fold change in rifampicin MIC at 1/4 MIC in low salt containing media by Mueller-Hinton broth based assay
[2] = test system: Acinetobacter baumannii; experiment: Potentiation of rifampicin-induced antibacterial activity against Acinetobacter baumannii ATCC 17978 assessed as rifampicin MIC at 16 microg/ml in high concentration of Ca++ and Mg++ containing media by Mueller-Hinton broth based assay; conditions: dose 16 µg/ml
[3] = test system: Pseudomonas aeruginosa; experiment: Antibacterial activity against Pseudomonas aeruginosa PAO1 in low salt containing media by Mueller-Hinton broth based assay
[4] = test system: Escherichia coli; experiment: Potentiation of rifampicin-induced antibacterial activity against Escherichia coli […] assessed as fold change in rifampicin MIC at 2 to 8 microg/ml in high concentration of Ca++ and Mg++ containing media by Mueller-Hinton broth based assay; conditions: dose 2-8 µg/ml
[5] = test system: Escherichia coli; experiment: Potentiation of rifampicin-induced antibacterial activity against Escherichia coli ATCC 25922 assessed as fold change in rifampicin MIC in low salt containing media by Mueller-Hinton broth based assay
[6] = test system: Escherichia coli; experiment: Potentiation of rifampicin-induced antibacterial activity against Escherichia coli ATCC 25922 assessed as fold change in rifampicin MIC at 16 microg/ml in high concentration of Ca++ and Mg++ containing media by Mueller-Hinton broth based assay; conditions: dose 16 µg/ml
[7] = test system: Pseudomonas aeruginosa; experiment: Potentiation of rifampicin-induced antibacterial activity against Pseudomonas aeruginosa PAO1 assessed as fold change in rifampicin MIC at 2 to 8 microg/ml in high concentration of Ca++ and Mg++ containing media by Mueller-Hinton broth based assay; conditions: dose 2-8 µg/ml
[8] = test system: Acinetobacter baumannii; experiment: Antibacterial activity against Acinetobacter baumannii 92247 in high concentration of Ca++ and Mg++ containing media by Mueller-Hinton broth based assay
[9] = test system: Escherichia coli; experiment: Potentiation of rifampicin-induced antibacterial activity against Escherichia coli ATCC 25922 assessed as fold change in rifampicin MIC at 2 to 8 microg/ml in high concentration of Ca++ and Mg++ containing media by Mueller-Hinton broth based assay; conditions: dose 2-8 µg/ml
[10] = test system: Escherichia coli; experiment: Antibacterial activity against Escherichia coli ATCC 25922 in low salt containing media by Mueller-Hinton broth based assay
[11] = test system: Pseudomonas aeruginosa; experiment: Potentiation of rifampicin-induced antibacterial activity against Pseudomonas aeruginosa PA262 assessed as rifampicin MIC at 2 to 8 microg/ml in high concentration of Ca++ and Mg++ containing media by Mueller-Hinton broth based assay; conditions: dose 2-8 µg/ml
[12] = test system: Acinetobacter baumannii; experiment: Potentiation of rifampicin-induced antibacterial activity against multidrug resistant Acinetobacter baumannii AB031 assessed as fold change in rifampicin MIC at 1/4 MIC in low salt containing media by Mueller-Hinton broth based assay

CCCCCCCCO[C@@H]1O[C@H](CN)[C@H](N)[C@H](OCc2ccc3ccccc3c2)[C@H]1N was tested. Which “fold change (FC)” value [1] did it give?
Its value is 64.

What about the MIC [2] of the same compound?
The MIC was 16 µg/mL.

And the MIC [3]?
Its MIC is 32 µg/mL.

And the “fold change (FC)” value [4]?
The value was 1.

What about the “fold change (FC)” value [5] of the same compound?
Its value is 128.

And the “fold change (FC)” value [6]?
The value was 1.

What about the “fold change (FC)” value [7] of the same compound?
The value was 1.

What about the MIC [8] of the same compound?
The MIC was no less than 64 µg/mL.

And the “fold change (FC)” value [9]?
Its value is 1.

What about the MIC [10] of the same compound?
Its MIC is 8 µg/mL.

What about the MIC [11] of the same compound?
Its MIC is 8 µg/mL.

What about the “fold change (FC)” value [12] of the same compound?
Its value is 64.
